# Laboratory results reported in paper PMC13070491, “Single-nucleus transcriptomics, pharmacokinetics, and pharmacodynamics of CDK4/6 and mTOR inhibition in a Phase 0/1 trial of recurrent high-grade glioma” (Neuro-Oncology, 2025).
# Test system: GB126, GB239 and GB86 patient-derived cell lines
# Assay: In vitro single-cell RNA sequencing, analyses across the cell lines (pseudobulk differential gene expression, GSEA, non-cycling cells)
# Assay type: cell-based, human
# Details: pseudobulk, ribociclib versus control (DMSO)
# Method: Patient-derived glioma stem cell lines (GSCs; GB126, GB86, and GB239) were established from resected GBM tumor tissue. Cell lines were genetically profiled for mutations and copy number aberrations using the IvySeq custom gene panel. […] GB239 was derived from a tumor sample included in this Phase 0 trial (tumor sample: 100-0039). All human GSCs were cultured as described previously.[12]
# Following the fifth day of drug exposure, cells were harvested, cryopreserved to be processed at a later point, or immediately processed for single-cell RNA sequencing (10x Genomics, 3’ version 3). The single-cell RNA sequencing data were then processed via cellranger count and Seurat. Briefly, cells were filtered out based on the following criteria: minimum number of genes detected >500 and <10 000 with a maximum percentage of mitochondrial genes set to 10%. Statistical assessment was made between the malignant proportions of each cell state using a 2-sided paired t-test.
# Descriptive statistics of the clinical data are included in Table 1. Comparisons between groups were conducted using a 2-sided or paired 2-sided t-test, where indicated. P < .05 was considered significant. Multiple hypothesis test corrections (ie, false discovery rate correction) were applied for snRNAseq pseudobulk differential expression analysis.
smiles,measurement,setting,value
CN(C)C(=O)c1cc2cnc(Nc3ccc(N4CCNCC4)cn3)nc2n1C1CCCC1 [ribo],log2FoldChange CYSLTR2,gene CYSLTR2,1.514
same,log2FoldChange CYYR1-AS1,gene CYYR1-AS1,1.511
same,log2FoldChange DDO,gene DDO,1.495
same,log2FoldChange,gene DEPDC1B,-1.796
same,log2FoldChange,gene DERL3,-1.095
same,log2FoldChange,gene DHFR,-1.766
same,log2FoldChange,gene DIAPH3-AS2,-1.671
same,log2FoldChange,gene DNA2,-1.693
same,log2FoldChange DSCR8,gene DSCR8,1.633
same,log2FoldChange,gene DTL,-1.106
same,log2FoldChange,gene ECT2,-1.057
same,log2FoldChange FAM71F1,gene FAM71F1,1.476
same,log2FoldChange,gene FAM72D,-1.625
same,log2FoldChange FAM189A2,gene FAM189A2,1.685
same,log2FoldChange,gene FANCG,-1.109
same,log2FoldChange,gene FBLN1,-1.678
same,log2FoldChange,gene FEN1,-1.753
same,log2FoldChange,gene FGFR3,-1.106
same,log2FoldChange FSHR,gene FSHR,1.906
same,log2FoldChange GBP6,gene GBP6,1.725
same,log2FoldChange GDF3,gene GDF3,1.697
same,log2FoldChange,gene GINS2,-1.846
same,log2FoldChange,gene GLI1,-1.086
same,log2FoldChange,gene GMNN,-1.627
same,log2FoldChange HABP2,gene HABP2,1.889
same,log2FoldChange,gene HAUS8,-1.09
same,log2FoldChange HEPH,gene HEPH,1.499
same,log2FoldChange HGFAC,gene HGFAC,1.4467
same,log2FoldChange,gene HIRIP3,-1.608
same,log2FoldChange,gene HIST1H1C,-1.863
same,log2FoldChange,gene HIST1H3H,-1.783
same,log2FoldChange HKDC1,gene HKDC1,1.5426
same,log2FoldChange,gene IL1A,-1.056
same,log2FoldChange,gene IL2RB,-1.0626
same,log2FoldChange,gene INCENP,-1.833
same,log2FoldChange ITIH6,gene ITIH6,1.766
same,log2FoldChange,gene KCNAB3,-1.628
same,log2FoldChange KISS1,gene KISS1,2.005
same,log2FoldChange,gene KNTC1,-1.6836
same,log2FoldChange LINC00239,gene LINC00239,1.81
same,log2FoldChange LINC00587,gene LINC00587,1.439
same,log2FoldChange LINC00601,gene LINC00601,1.889
same,log2FoldChange LINC00645,gene LINC00645,1.665
same,log2FoldChange LINC00844,gene LINC00844,1.919
same,log2FoldChange LINC00892,gene LINC00892,1.448
same,log2FoldChange LINC00901,gene LINC00901,2.0689
same,log2FoldChange LINC00903,gene LINC00903,1.858
same,log2FoldChange LINC00943,gene LINC00943,1.485
same,log2FoldChange LINC00992,gene LINC00992,1.834
same,log2FoldChange,gene LINC01337,-1.849
same,log2FoldChange LINC01496,gene LINC01496,1.714
same,log2FoldChange LINC01630,gene LINC01630,1.508
same,log2FoldChange LINC01822,gene LINC01822,1.567
same,log2FoldChange LINC02073,gene LINC02073,1.471
same,log2FoldChange,gene LINC02137,-1.093
same,log2FoldChange LINC02243,gene LINC02243,1.564
same,log2FoldChange LINC02320,gene LINC02320,1.543
same,log2FoldChange LINC02349,gene LINC02349,1.483
same,log2FoldChange LINC02450,gene LINC02450,1.635
same,log2FoldChange LINC02552,gene LINC02552,1.805
same,log2FoldChange LINC02625,gene LINC02625,1.633
same,log2FoldChange,gene LINC02757,-1.715
same,log2FoldChange LINC02831,gene LINC02831,1.506
same,log2FoldChange LNX1-AS1,gene LNX1-AS1,1.468
same,log2FoldChange,gene LPL,-1.817
same,log2FoldChange,gene LRRC26,-1.7868
same,log2FoldChange MARVELD3,gene MARVELD3,1.752
same,log2FoldChange MCHR1,gene MCHR1,1.5856
same,log2FoldChange,gene MCM8,-1.112
same,log2FoldChange MGP,gene MGP,1.798
same,log2FoldChange,gene MMS22L,-1.0936
same,log2FoldChange,gene MND1,-1.879
same,log2FoldChange MYH7,gene MYH7,1.782
same,log2FoldChange NAT2,gene NAT2,2.867
same,log2FoldChange NCAN,gene NCAN,1.62
same,log2FoldChange,gene NCAPD2,-1.822
same,log2FoldChange,gene NEMP2,-1.111
same,log2FoldChange,gene NEUROD4,-1.88
same,log2FoldChange NHLRC4,gene NHLRC4,1.795
same,log2FoldChange NMRK2,gene NMRK2,1.566
same,log2FoldChange,gene NOSTRIN,-1.881
same,log2FoldChange,gene NT5M,-1.088
same,log2FoldChange,gene NUP210,-1.755
same,log2FoldChange,gene PALM3,-1.6379
same,log2FoldChange,gene PASK,-1.1089
same,log2FoldChange PCP4L1,gene PCP4L1,2.139
same,log2FoldChange,gene PHF19,-1.68
same,log2FoldChange PLA2G5,gene PLA2G5,2.135
same,log2FoldChange PLAAT4,gene PLAAT4,1.529
same,log2FoldChange,gene PMAIP1,-1.131
same,log2FoldChange,gene POLQ,-1.824
same,log2FoldChange PPP1R1C,gene PPP1R1C,1.557
same,log2FoldChange PROK2,gene PROK2,1.695
same,log2FoldChange,gene PRR11,-1.758
same,log2FoldChange,gene PSMC3IP,-1.597
same,log2FoldChange PTGDS,gene PTGDS,2.458
same,log2FoldChange RAB7B,gene RAB7B,1.47
same,log2FoldChange,gene RACGAP1,-1.841
same,log2FoldChange,gene RAD51,-1.643
same,log2FoldChange,gene RADIL,-1.781
same,log2FoldChange,gene RBBP8,-1.095
same,log2FoldChange,gene RDM1,-1.73
same,log2FoldChange,gene REXO5,-1.094
same,log2FoldChange,gene RHBDL3,-1.639
same,log2FoldChange RNASE6,gene RNASE6,1.784
same,log2FoldChange,gene RPA3,-1.063
same,log2FoldChange RSPH1,gene RSPH1,1.529
same,log2FoldChange,gene RTKN2,-1.715
